Laboratory results published in patent US20240058450A1, “BCL-XL Inhibitory Compounds Having Low Cell Permeability and Antibody Drug Conjugates Including the Same” (AbbVie Inc., priority 2014, published 2024).
pKi: −log10 of the molar value. Like-named read-outs stand apart in the source and are kept apart here.

Experiments:
Bcl-xL = Bcl-xL (Homo sapiens, UniProt Q07817); test: Time Resolved-Fluorescence Resonance Energy Transfer (TR-FRET) binding assay, competition with probe F-Bak; conditions: for Ki: in the presence of 1% HS, read-out: Bcl-xL Binding Ki (nM, 1% HS); for pKi: without HS, read-out: Bcl-xL Binding Ki
Protocol: Tb-anti-GST antibody was purchased from Invitrogen (Catalog No. PV4216).
For the assay, test compounds were serially diluted in DMSO starting at 50 μM (2× starting concentration; 10% DMSO) and 10 μL transferred into a 384-well plate. 10 μL of a protein/probe/antibody mix was then added to each well at final concentrations listed below:
The samples were then mixed on a shaker for 1 minute and incubated for an additional 2 hours at room temperature. For each assay plate, a probe/antibody and protein/antibody/probe mixture were included as a negative and a positive control, respectively. Fluorescence was measured on the Envision (Perkin Elmer) using a 340/35 nm excitation filter and 520/525 (F-Bak) and 495/510 nm (Tb-labeled anti-his antibody) emission filters. Dissociation constants (Ki) were determined using Wang's equation (Wang, 1995, FEBS Lett. 360:111-114). The TR-FRET assay can be performed in the presence of varying concentrations of human serum (HS) or fetal bovine serum (FBS). Compounds were tested both without HS and in the presence of 1% HS.

[1] = test system: Molt-4 human acute lymphoblastic leukemia cells; test: Molt-4 cell viability assay (CellTiter-Glo, 48 hours, 10% HS); type: cell-based; conditions: non-permeabilized cells
Protocol: The ability of Bcl-xL inhibitors that are able to traverse cell membranes to inhibit Bcl-xL can be determined in cell-based killing assays using a variety of cell lines and mouse tumor models. For example, their activity on cell viability can be assessed on a panel of cultured tumorigenic and non-tumorigenic cell lines, as well as primary mouse or human cell populations.
In one exemplary set of conditions, Molt-4 (ATCC, Manassas, VA) human acute lymphoblastic leukemia cells were plated 12,500 cells per well in 384-well tissue culture plates (Corning, Corning, NY) in a total volume of 25 μL tissue culture medium supplemented with 10% human serum (Sigma-Aldrich, St. Louis, MO) and treated with a 3-fold serial dilution of the compounds of interest from 10 μM to 0.0005 μM. Each concentration was tested in duplicate at least 3 separate times. The number of viable cells following 48 hours of compound treatment was determined using the CellTiter-Glo®, Luminescent Cell Viability Assay according to the manufacturer's recommendations (Promega Corp., Madison, WI). Compounds were tested in the presence of 10% HS.

Sequence of Bcl-xL (Q07817 whole entry): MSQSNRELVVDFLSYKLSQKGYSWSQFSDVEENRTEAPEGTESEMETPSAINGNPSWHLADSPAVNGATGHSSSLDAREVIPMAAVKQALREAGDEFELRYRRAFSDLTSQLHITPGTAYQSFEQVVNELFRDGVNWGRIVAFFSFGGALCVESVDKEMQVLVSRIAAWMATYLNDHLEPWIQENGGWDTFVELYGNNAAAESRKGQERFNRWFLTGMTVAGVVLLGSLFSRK

SMILES | Ki (Bcl-xL) [nM] | pKi (Bcl-xL) | EC50 ([1]; Homo sapiens, MOLT-4, 48 h) [nM] | EC50 [1] [nM]
Cc1c(-c2ccc(N3CCc4cccc(C(=O)Nc5nc6ccccc6s5)c4C3)nc2C(=O)O)cnn1CC12CC3(C)CC(C)(C1)CC(OCCNCCCc1cn([C@@H]4O[C@H](C(=O)O)[C@@H](O)[C@H](O)[C@H]4O)nn1)(C3)C2 [Example 1.73, 8-(1,3-benzothiazol-2-ylcarbamoyl)-2-{6-carboxy-5-[1-({3-[2-({3-[1-(beta-D-glucopyranuronosyl)-1H-1,2,3-triazol-4-yl]propyl}amino)ethoxy]-5,7-dimethyltricyclo[3.3.1.1^3,7]dec-1-yl}methyl)-S-methyl-1H-pyrazol-4-yl]pyridin-2-yl}-1,2,3,4-tetrahydroisoquinoline] | 34 | 9.06 | 3500 | 
Cc1c(-c2ccc(-c3ccc4cccc(C(=O)Nc5nc6ncccc6s5)c4c3)nc2C(=O)O)cnn1CC12CC3(C)CC(C)(C1)CC(OCCNCCS(=O)(=O)O)(C3)C2 [Example 1.54, 3-{1-[(3,5-dimethyl-7-[2-[(2-sulfoethyl)amino]ethoxy}tricyclo[3.3.1.1^3,7]dec-1-yl)methyl]-5-methyl-1H-pyrazol-4-yl}-6-[8-([1,3]thiazolo[4,5-b]pyridin-2-ylcarbamoyl)naphthalen-2-yl]pyridine-2-carboxylic acid] | 0.11 | > 12.00 | > 10000 | 
Cc1c(-c2ccc(N3CCc4cccc(C(=O)Nc5nc6ccccc6s5)c4C3)nc2C(=O)O)cnn1CC12CC3(C)CC(C)(C1)CC(OCCNC[C@H](O)[C@@H](O)CO)(C3)C2 [Example 1.81, 6-[8-(1,3-benzothiazol-2-ylcarbamoyl)-3,4-dihydroisoquinolin-2 (1H)-yl]-3-(1-{[3,5-dimethyl-7-(2-{[(2S,3S)-2,3,4-trihydroxybutyl]amino}ethoxy)tricyclo[3.3.1.1^3,7]dec-1-yl]methyl}-5-methyl-1H-pyrazol-4-yl}pyridine-2-carboxylic acid] | 0.37 | 10.96 | 252 | 
Cc1c(-c2ccc(N3CCc4cccc(C(=O)Nc5nc6ccccc6s5)c4C3)nc2C(=O)O)cnn1CC12CC3(C)CC(C)(C1)CC(OCCN(CCS(=O)(=O)O)C(=O)[C@@H](N)CS(=O)(=O)O)(C3)C2 [Example 1.37, 6-[8-(1,3-benzothiazol-2-ylcarbamoyl)-3,4-dihydroisoquinolin-2 (1H)-yl]-3-{1-[(3,5-dimethyl-7-{2-[(3-sulfo-L-alanyl)(2-sulfoethyl)amino]ethoxy}tricyclo[3.3.1.1^3,7]dec-1-yl)methyl]-5-methyl-1H-pyrazol-4-yl}pyridine-2-carboxylic acid] | 0.294 | > 12.00 | 805 | 
Cc1c(-c2ccc(-c3ccc4c(c3)N(C(=O)Nc3nc5ccccc5s3)CCC4)nc2C(=O)O)cnn1CC12CC3(C)CC(C)(C1)CC(OCCN(C)CCCN)(C3)C2 [Example 1.64, 3-{1-[(3-{2-[(3-aminopropyl)(methyl)amino]ethoxy}-5,7-dimethyltricyclo[3.3.1.1^3,7]dec-1-yl)methyl]-5-methyl-1H-pyrazol-4-yl)-6-[1-(1,3-benzothiazol-2-ylcarbamoyl)-1,2,3,4-tetrahydroquinolin-7-yl]pyridine-2-carboxylic acid] | < 0.01 | > 11.00 | 5.25 | 
Cc1c(-c2ccc(N3CCc4cccc(C(=O)Nc5nc6ccccc6s5)c4C3)nc2C(=O)O)cnn1CC12CC3(C)CC(C)(C1)CC(OCCN(CCCC(=O)O)C1CCNCC1)(C3)C2 [Example 1.42, 6-[8-(1,3-benzothiazol-2-ylcarbamoyl)-3,4-dihydroisoquinolin-2 (1H)-yl]-3-{1-[(3-{2-[(3-carboxypropyl)(piperidin-4-yl)amino]ethoxy}-5,7-dimethyltricyclo[3.3.1.1^3,7]dec-1-yl)methyl]-5-methyl-1H-pyrazol-4-yl}pyridine-2-carboxylic acid] | 0.133 | > 12.00 | 482 | 
Cc1c(-c2ccc(-c3ccc4c(c3)N(C(=O)Nc3nc5ncccc5s3)CCC4)nc2C(=O)O)cnn1CC12CC3(C)CC(C)(C1)CC(OCCNCCS(=O)(=O)O)(C3)C2 [Example 1.53, 3-{1-[(3,5-dimethyl-7-{2-[(2-sulfoethyl)amino]ethoxy}tricyclo[3.3.1.1^3,7]dec-1-yl)methyl]-5-methyl-1H-pyrazol-4-yl}-6-[1-([1,3]thiazolo[4,5-b]pyridin-2-ylcarbamoyl)-1,2,3,4-tetrahydroquinolin-7-yl]pyridine-2-carboxylic acid] | 0.088 | > 12.00 | 462 | 
Cc1c(-c2ccc(N3CCc4cccc(C(=O)Nc5nc6ccccc6s5)c4C3)nc2C(=O)O)cnn1CC12CC3(C)CC(C)(C1)CC(OCCNCC(O)CO)(C3)C2 (centres unmarked) [Example 1.7, 6-[8-(1,3-benzothiazol-2-ylcarbamoyl)-3,4-dihydroisoquinolin-2 (1H)-yl]-3-{1-[(3-{2-[(2,3-dihydroxypropyl)amino]ethoxy}-5,7-dimethyltricyclo[3.3.1.1^3,7]dec-1-yl)methyl]-5-methyl-1H-pyrazol-4-yl}pyridine-2-carboxylic acid] | 0.24 |  | 12 | 
Cc1c(-c2ccc(N3CCc4cccc(C(=O)Nc5nc6ccccc6s5)c4C3)nc2C(=O)O)cnn1CC12CC3(C)CC(C)(C1)CC(OCCNCc1ccc(S(=O)(=O)N[C@@H]4[C@@H](O)[C@H](O)[C@@H](CO)O[C@H]4O)cc1)(C3)C2 [Example 1.8, 2-({[4-({[2-({3-[(4-{6-[8-(1,3-benzothiazol-2-ylcarbamoyl)-3,4-dihydroisoquinolin-2 (1H)-yl]-2-carboxypyridin-3-yl}-5-methyl-1H-pyrazol-1-yl)methyl]-5,7-dimethyltricyclo[3.3.1.1^3,7]dec-1-yl}oxy)ethyl]amino}methyl)phenyl]sulfonyl}amino)-2-deoxy-beta-D-glucopyranose] | 0.19 | 11.72 | 108 | 
CNCCOC12CC3(C)CC(C)(CC(Cn4ncc(-c5ccc(N6CCc7c(OCCCS(=O)(=O)O)ccc(C(=O)Nc8nc9ccccc9s8)c7C6)nc5C(=O)O)c4C)(C3)C1)C2 [Example 1.52, 6-[8-(1,3-benzothiazol-2-ylcarbamoyl)-5-(3-sulfopropoxy)-3,4-dihydroisoquinolin-2 (1H)-yl]-3-[1-({3,5-dimethyl-7-[2-(methylamino)ethoxy]tricyclo[3.3.1.1^3,7]dec-1-yl}methyl)-5-methyl-1H-pyrazol-4-yl]pyridine-2-carboxylic acid] | 0.0329 | > 12.00 | 973 | 
CNCCCc1cc2c(c(C(=O)Nc3nc4ccccc4s3)c1)CN(c1ccc(-c3cnn(CC45CC6(C)CC(C)(C4)CC(OCCNCCS(=O)(=O)O)(C6)C5)c3C)c(C(=O)O)n1)CC2 [Example 1.75, 6-[8-(1,3-benzothiazol-2-ylcarbamoyl)-6-[3-(methylamino)propyl]-3,4-dihydroisoquinolin-2 (1H)-yl]-3-{1-[(3,5-dimethyl-7-{2-[(2-sulfoethyl)amino]ethoxy}tricyclo[3.3.1.1^3,7]dec-1-yl)methyl]-5-methyl-1H-pyrazol-4-yl}pyridine-2-carboxylic acid] | 0.85 | 10.80 | 409 | 
Cc1c(-c2ccc(N3CCc4cccc(C(=O)Nc5nc6ccccc6s5)c4C3)nc2C(=O)O)cnn1CC12CC3(C)CC(C)(C1)CC(OCCN(C)C(=O)[C@@H](N)CC(=O)O)(C3)C2 [Example 1.17, 3-{1-[(3-{2-[L-alpha-aspartyl(methyl)amino]ethoxy}-5,7-dimethyltricyclo[3.3.1.1^3,7]dec-1-yl)methyl]-5-methyl-1H-pyrazol-4-yl}-6-[8-(1,3-benzothiazol-2-ylcarbamoyl)-3,4-dihydroisoquinolin-2 (1H)-yl]pyridine-2-carboxylic acid] | 0.3 | 10.66 | 576 | 
Cc1c(-c2ccc(N3CCc4cccc(C(=O)Nc5nc6ccccc6s5)c4C3)nc2C(=O)O)cnn1CC12CC3(C)CC(C)(C1)CC(OCCNCC[C@H](O)[C@H](O)CO)(C3)C2 [Example 1.80] | 0.78 | 10.28 | 355 | 
Cc1c(-c2ccc(N3CCc4cccc(C(=O)Nc5nc6ccccc6s5)c4C3)nc2C(=O)O)cnn1CC12CC3(C)CC(C)(C1)CC(OCCN(C)C(=O)[C@H](N)CC(=O)O)(C3)C2 [Example 1.27] | 0.18 | > 12.00 |  | 935
